Assay results from patent publication US11008572B2, “Methods and compositions for modulating splicing” (SKYHAWK THERAPEUTICS, INC., priority 2017, dated 2021).
Read-outs that look alike come from different tables or passages of the source.

Tests used:
[1] = tested on: A673 cells; test: Dose-response cell proliferation, crystal violet assay, 72 h; format: cell-based; conditions: ratio of IC50 in NHDF cells to IC50 in A673 cells
Experimental: Small molecule splicing modulators were tested in a dose-response assay using A673 cells and NHDF cells.
A673 cells or NHDF cells were first plated in 96-well plastic tissue culture plates (10,000 cells per well). The cells were treated with vehicle alone (DMSO), or increasing concentrations of SMSM compounds for 72 h. Following treatment, cell proliferation was determined using a crystal violet assay. The relative cell proliferation at each concentration was determined.

[2] = tested on: FOXM1^A2 mRNA and FOXM1^BC mRNA; test: Splicing assay (FOXM1), qPCR of isoform mRNAs; format: cell-based
Procedure, shortened: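 RT-qPCR read-out after 24 h compound exposure at 37° C., 0.2% DMSO, top dose 10 μM with 4-fold 8-point dilutions, 20,000 cells per well. Copy numbers from plasmid standard curves, PPIA-normalized, expressed as isoform ratio relative to DMSO.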

[3] = tested on: A-673 cells; test: Cell viability, crystal violet staining; format: cell-based; conditions: Homo sapiens
Procedure, shortened: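 Readout is absorbance at 570 nm of crystal violet, taken up in 0.1 M sodium citrate in 50% ethanol after staining with 0.5% dye in 25% methanol. Plates held 5×10^3 cells per well, and compounds were added one day after seeding for 72 hours. Data are relative to vehicle, mean±SE.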

[4] = Splicing (IC50), Example 22; format: cell-based; conditions: spliced gene and cells not stated
Experimental: A-673 cell viability […], splicing (IC50) and brain AUC/Plasma AUC of SMSMs were determined. As shown in the tables below SMSMs had high CNS exposure.

[5] = Maximum tolerable dose study; format: in vivo; conditions: mice, 3 per group
Experimental: Survival of mice after administration of SMSMs after 10 or 11 days was assessed.
Tolerance of the drug treatments was determined by measuring the weight of the mice during the period of drug administration. Body weight was measured prior to tumor inoculation and prior to the treatment administration and then daily. The changes in the final weight of the mice for the SMSM treatments were determined.

[6] = tested on: SMN2^FL mRNA; test: SMN2 splicing assay, real-time quantitative PCR, SMA type I patient cells (GM03813); format: cell-based; conditions: Homo sapiens, 24 hours
Experimental: (§1) Various cells lines were treated with the SMSMs described herein. RNA was then isolated, cDNA synthesized, qPCR performed and the levels of various mRNA targets of the SMSMs were determined. In some instances, RNA was isolated, cDNA synthesized, qPCR performed and the levels of mRNA isoforms in the various cell samples were determined.
(§2) SMA type I patient cells (GM03813 (Coriell))
(§3) On the day of the experiment, a 96-well plate was seeded with the cell lines of interest. The cells were diluted with full growth media to a concentration of 2.0×10^5 cells/mL and 100 μL of cells were added to each well (20,000 cells per well). The cells were treated with a compound immediately after plating.
(§4) The compounds were then added to the cell plate using the HP compound dispenser. In the initial experiment, a top concentration of 10 μM and an 8 point 4-fold dilution scheme was used. The stock compounds were made at a concentration of 5 mM, and the DMSO concentration was set to 0.2%. DMSO was used to normalize all the compound-containing wells and the untreated cells.
(§5) The treated cells were incubated at 37° C. in a 5% CO2 incubator for the desired amount of time. Plates were placed in a plastic bag with a wet paper towel to prevent evaporation.
(§6) RNA was isolated using the Cells to CT kit (ThermoFisher, AM1728). The cells were washed once with 100 μL cold PBS. 50 μL of lysis buffer was added to each well/tube (49.5 μL lysis buffer+0.5 μL DNase I per well/tube). The lysis reaction was mixed and incubated at room temperature for 5 minutes. 5 μL of stop solution was added directly into each cell lysis reaction and mixed by pipetting up and down 5 times. The plates/tubes were incubated at room temperature for 2 minutes then placed on ice if the cDNA synthesis was to be performed immediately. Otherwise, the plates/tubes were stored at −80° C.
(§7) cDNA synthesis reactions were then performed. 40 μL RT master mix was added to PCR tubes or plate wells. 10 μL of RNA was added to each tube/well. The RT thermal cycler program was then run and tubes or plate wells were incubated at 37° C. for 1 hour, then at 95° C. for 5 minutes to deactivate the enzyme.
(§8) The qPCR was performed using a QuantStudio 6instrument (ThermoFisher) and the following cycling conditions and according to the tables below. All samples and standards were analyzed in triplicate. Cycle 1: 2 minutes at 50° C. Cycle 2: 10 minutes at 95′C. Cycle 3 (repeat 40 times): 15 seconds at 95° C., 1 minute at 60° C.
(§9) The determined SMN2^Δ7 and SMN2^FL quantities were then be used to determine the SMN2^Δ7:SMN2^FL ratio at the various compound concentrations. The PPIA quantities were used in the normalization to account of cell proliferation effects of the compounds.
(§10) An assay to measure the SMN2^FL mRNA and SMN2^Δ7 mRNA simultaneously in cell wells was performed. The RNA values were measured relative to DMSO control and also included a housekeeping gene, PPIA to ensure data was consistent. The mRNA values were measured after 24 hours of incubation with the SMSM compounds.
(§11) Additionally, to monitor expression levels of SMN2 splice variant using real-time quantitative PCR, SMA type I patient cells (GM03813 (Coriell)) were plated at 5,000 cells/well in 200 μl Dulbecco's modified Eagle's medium (DMEM) with GlutaMAX and 10% fetal bovine serum (FBS) (Life Technologies, Inc.) in 96-well plates, and incubated for 6 hours in a cell culture incubator. Cells were then treated with SMSMs at different concentrations (0.5% DMSO) in duplicate for 24 hours. After removal of the supernatant, cells were lysed in Cells-To-Ct lysis buffer (Life Technologies, Inc.) according to the manufacturer's recommendations. The mRNA levels of SMN2 FL, SMN2 A7 were quantified using Taqman-based RT-qPCR and SMN2-specific primers and probes. The SMN2 forward and reverse primers were each used at a final concentration of 0.4 μM. The SMN2 probe was used at a final concentration of 0.1 μM. […]

[7] = tested on: SMN2^Δ7 mRNA; test: as above; format: cell-based; conditions: Homo sapiens, 24 hours
Experimental: as §1, §2, §3, §4, §5, §6, §7, §8, §9, §10, §11

[8] = FoxM1 BC mRNA decrease (exon included), read-out: Splice IC50 (nM) FoxM1 BC mRNA decrease (exon included)
[9] = Homo sapiens, A673, 24 h, A-673 cells, 24 hours, table does not say EC50 or IC50, read-out: FOXM1
[10] = Homo sapiens, A-375, 24 h, A-375 cells, 24 hours, table does not say EC50 or IC50, read-out: FOXM1
[11] = Homo sapiens, Hep3B, 24 h, Hep-3B cells, 24 hours, table does not say EC50 or IC50, read-out: FOXM1
[12] = Homo sapiens, K562, 24 h, K-562 cells, 24 hours, table does not say EC50 or IC50, read-out: FOXM1
[13] = Homo sapiens, MDA-MB-468, 24 h, MDA-MB-468 cells, 24 hours, table does not say EC50 or IC50, read-out: FOXM1
[14] = Homo sapiens, NCI-H358, 24 h, NCI-H358 cells, 24 hours, table does not say EC50 or IC50, read-out: FOXM1
[15] = Homo sapiens, PANC-1, 24 h, PANC-1 cells, 24 hours, table does not say EC50 or IC50, read-out: FOXM1
[16] = Homo sapiens, PC-3, 24 h, PC-3 cells, 24 hours, table does not say EC50 or IC50, read-out: FOXM1
[17] = Homo sapiens, U-87 MG, 24 h, U-87MG cells, 24 hours, table does not say EC50 or IC50, read-out: FOXM1
[18] = read-out: Splice EC50 (nM) FoxM1 A mRNA increase (exon excluded)
[19] = A673, cell viability, read-out: A-673 IC50 (nM) Cell viability
[20] = A673, read-out: A-673 cell viability (IC50)
[21] = A673, cell viability, read-out: A-673 IC50 (nM), Cell viability

SMILES | Ratio NHDF/A673 IC50 [1] | IC50 [2, 8] | IC50 [2, 9] | IC50 [2, 10] | IC50 [2, 11] | IC50 [2, 12] | IC50 [2, 13] | IC50 [2, 14] | IC50 [2, 15] | IC50 [2, 16] | IC50 [2, 17] | EC50 [2, 18] | IC50 [3, 19] | IC50 [3, 20] | IC50 [4] | IC50 [3, 21] | further results
CC(/C=C/C(=O)NO)=C\[C@@H](C)C(=O)c1ccc(N(C)C)cc1 [Trichostatin A] | ≤10 | – | – | – | – | – | – | – | – | – | – | – | – | – | – | – | –
CN(c1ccc(-c2ccc(-c3ccn(C)c(=O)c3)cc2O)nn1)[C@H]1C[C@]2(C)CC[C@](C)(C1)N2 [compound 168, 4-(4-(6-(((1R,3s,5S)-1,5-dimethyl-8-azabicyclo[3.2.1]octan-3-yl)(methyl)amino)pyridazin-3-yl)-3-hydroxyphenyl)-1-methylpyridin-2(1H)-one] | >500 | < 10 nM | 1 to 10 nM | 1 to 10 nM | 101 to 200 nM | 11 to 100 nM | 11 to 100 nM | 1 to 10 nM | 101 to 200 nM | 11 to 100 nM | 11 to 100 nM | > 1000 nM | < 10 nM | ≤ 5 nM | < 1 nM | – | –
CN(c1ccc(-c2cc(F)c(-c3cn[nH]c3)cc2O)nn1)[C@H]1C[C@]2(C)CC[C@](C)(C1)N2 [compound 167, 2-(6-(((1R,3s,5S)-1,5-dimethyl-8-azabicyclo[3.2.1]octan-3-yl)(methyl)amino)pyridazin-3-yl)-4-fluoro-5-(1H-pyrazol-4-yl)phenol] | >2,500 | < 10 nM | < 1 nM | < 1 nM | 11 to 100 nM | 1 to 10 nM | 1 to 10 nM | < 1 nM | 11 to 100 nM | 11 to 100 nM | 11 to 100 nM | < 10 nM | < 10 nM | < 0.5 nM | < 1 nM | – | Outcome ([5]; IP 0.1 mg/kg BIDx12): All survived; Outcome ([5]; IP 0.3 mg/kg BIDx12): All survived; Outcome ([5]; IP 1 mg/kg QDx12): All survived; Outcome ([5]; PO 5 mg/kg QDx12): All survived
COc1cc(-c2ccc(-c3ccc(N(C)[C@@H]4C[C@H]5CCC[C@@H](C4)N5)nn3)c(O)c2)ccn1 [compound 289, 2-(6-(((1R,3s,5S)-9-azabicyclo[3.3.1]nonan-3-yl)(methyl)amino)pyridazin-3-yl)-5-(2-methoxypyridin-4-yl)phenol] | – | – | – | – | – | – | – | – | – | – | – | – | – | – | – | < 10 nM | EC50 [6]: 4 nM; IC50 [7]: 4 nM
Cc1nnn(-c2ccc(-c3ccc(O[C@@H]4C[C@H]5CC[C@@H](C4)N5)nn3)c(O)c2)n1 [compound 258, 2-(6-(((1R,3s,5S)-8-azabicyclo[3.2.1]octan-3-yl)oxy)pyridazin-3-yl)-5-(5-methyl-2H-tetrazol-2-yl)phenol] | – | – | – | – | – | – | – | – | – | – | – | – | – | – | 149 nM | 251 to 500 nM | IC50 ([2]; 24 h, FoxM1 BC mRNA decrease (exon included), 0.1-1000 nM, 24 hours, read-out: Splice IC50 (nM), FoxM1 BC mRNA decrease (exon included)): 101 to 250 nM; EC50 ([2]; FoxM1 A mRNA increase (exon excluded), 0.1-1000 nM, 24 hours, read-out: Splice EC50 (nM), FoxM1 A mRNA increase (exon excluded)): 10 to 100 nM
